Test [1] addresses T1, dDAT expressed in COS-7 cells (Drosophila melanogaster, UniProt Q7K4Y6).
T1 construct: Full length dDAT with a C-terminal thrombin cleavage site followed by a His8-tag; expressed in transfected cells; host or cells: COS-7 cells, transient transfection
The experiment in a line: Competition binding of [3H]nisoxetine in COS-7 cells expressing dDAT. On the procedure: (§1) COS-7 cells (a generous gift from Prof. U. Gether, Univ. of Copenhagen) were transiently transfected in Opti-MEM media (ThermoFisher Scientific, Waltham, MA, USA) using lipofectamine 3000 (ThermoFisher Scientific, Waltham, MA, USA) with 0.36 µg hDAT in the pcDNA3.1 vector, 0.36–0.47 µg hNET in the pcDNA3.1 vector or 0.83–1.6 µg dDAT in pEG BacMam vector per 10^6 cells, in a lipofectamine:DNA (w/w) ratio of 3.5. Cells were seeded in 24-well plates (5 × 10^4/well) coated with poly-ornithine and incubated in 10% CO2 at 37 °C in DMEM media supplemented with 1% FBS.
(§2) Competition binding assays were performed directly in the culture dish 48 h after transfection of the cells. The competition binding experiments were carried out at room temperature (RT). […] All experiments were performed in triplicates.
(§3) All statistical tests and data analyses were performed in GraphPad Prism 9 (GraphPad Software, Prism 9 version 9.2.0, San Diego, CA, USA). Unless otherwise specified, all data points are given as mean ± SEM (standard error of the mean) or mean [SEM interval]. Data obtained from competition binding analyses were fitted as a non-linear regression (curve fit) through an inhibitory dose–response model (variable slope), otherwise known as a four-parameter logistic equation. The non-specific binding condition was subtracted before fitting the data. From the logIC50, the IC50 can be obtained and, therefore, the affinity (Ki) derived through the Cheng-Prusoff equation. For homologous competitive binding, whereby the same compound is used as both the labelled and unlabelled ligand, the Cheng-Prusoff equation can be converted to obtain the Kd. Data plotted as a percentage of the control (absence of the competitive ligand) unless otherwise stated, i.e., normalized to the Bmax determined from the sigmoidal fit. Saturation binding data were fitted after subtracting the non-specific binding from each condition. The data were fitted as a non-linear regression (curve fit) through a sigmoidal dose–response (variable slope) model to determine the Kd. Ion binding study data were plotted using the same four-parameter logistic equation. […] The saturation curves on each plate were fitted with a globally shared Bmax value to enable estimation of low affinity constants.

Test [2] deals with T2, purified dDAT (dDAT-His8) (Drosophila melanogaster, UniProt Q7K4Y6).
T2 construct: Full length dDAT with a C-terminal thrombin cleavage site followed by a His8-tag; made in house; host or cells: Expi293F suspension cells transduced with BacMam baculovirus (virus produced in Sf9)
T2 sequence (Q7K4Y6 whole entry): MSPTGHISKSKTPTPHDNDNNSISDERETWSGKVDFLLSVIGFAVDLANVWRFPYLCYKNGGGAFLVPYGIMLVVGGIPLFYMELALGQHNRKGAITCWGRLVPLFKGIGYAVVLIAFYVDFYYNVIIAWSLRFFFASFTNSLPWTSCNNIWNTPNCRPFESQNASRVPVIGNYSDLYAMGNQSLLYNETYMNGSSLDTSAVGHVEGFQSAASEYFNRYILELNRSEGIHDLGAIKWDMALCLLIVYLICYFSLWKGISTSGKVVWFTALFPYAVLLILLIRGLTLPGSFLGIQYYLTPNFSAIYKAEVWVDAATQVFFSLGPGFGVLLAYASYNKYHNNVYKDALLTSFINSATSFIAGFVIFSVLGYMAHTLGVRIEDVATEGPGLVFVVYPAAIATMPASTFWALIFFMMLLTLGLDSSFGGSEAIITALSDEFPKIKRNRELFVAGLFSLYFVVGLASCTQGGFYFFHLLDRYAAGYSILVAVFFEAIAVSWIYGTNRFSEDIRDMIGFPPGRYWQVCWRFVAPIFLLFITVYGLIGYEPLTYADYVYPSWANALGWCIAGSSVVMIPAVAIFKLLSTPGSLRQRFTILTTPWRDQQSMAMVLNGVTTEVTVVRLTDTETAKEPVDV
The experiment in a line: Saturation binding of [3H]nisoxetine to purified dDAT (SPA). On the procedure:
(§4) Binding of substrates and inhibitors to purified dDAT was assessed through saturation and competition binding by scintillation proximity assay (SPA).
All experiments were performed in triplicates.
(§5) All statistical tests and data analyses were performed in GraphPad Prism 9 (GraphPad Software, Prism 9 version 9.2.0, San Diego, CA, USA). Unless otherwise specified, all data points are given as mean ± SEM (standard error of the mean) or mean [SEM interval]. Data obtained from competition binding analyses were fitted as a non-linear regression (curve fit) through an inhibitory dose–response model (variable slope), otherwise known as a four-parameter logistic equation. The non-specific binding condition was subtracted before fitting the data. From the logIC50, the IC50 can be obtained and, therefore, the affinity (Ki) derived through the Cheng-Prusoff equation. For homologous competitive binding, whereby the same compound is used as both the labelled and unlabelled ligand, the Cheng-Prusoff equation can be converted to obtain the Kd. Data plotted as a percentage of the control (absence of the competitive ligand) unless otherwise stated, i.e., normalized to the Bmax determined from the sigmoidal fit. Saturation binding data were fitted after subtracting the non-specific binding from each condition. […]

In test [3] the test system is dDAT stably transfected into MDCK cells. Details: method as in ref 25 (Pörzgen et al. 2001). The conditions noted are these: uptake inhibition of [3H]dopamine, ref 25 (Pörzgen et al. 2001); cited from earlier work.
Test [4] concerns the target T3, purified, full length dDAT (Drosophila melanogaster, UniProt Q7K4Y6).
T3 construct: Full length dDAT with a C-terminal thrombin cleavage site followed by a His8-tag; made in house; host or cells: Expi293F suspension cells transduced with BacMam baculovirus (virus produced in Sf9)
The experiment in a line: Competitive inhibition of [3H]nisoxetine binding to purified dDAT by scintillation proximity assay (SPA). As to the method:
as §4
(§6) This mixture was incubated on rotation for 45 min in darkness at 4 °C. The dDAT-SPA buffer mixture was added to the wells along with 100 nM of the desired tritiated ligand (often at 10% specific activity) and the dilution series of the unlabelled competitor. […] The plates were sealed, mixed at RT for 1.5 h on an agitator and left to settle at RT for 30 min. […] Plates were stored at 4 °C overnight and recounted to ensure that the original data was obtained at equilibrium. All experiments were performed in triplicates.
as §3

The target in test [5] is T4, hDAT expressed in COS-7 cells (Homo sapiens, UniProt Q01959).
T4 construct: expressed in transfected cells; host or cells: COS-7 cells, transient transfection
T4 sequence (Q01959 whole entry): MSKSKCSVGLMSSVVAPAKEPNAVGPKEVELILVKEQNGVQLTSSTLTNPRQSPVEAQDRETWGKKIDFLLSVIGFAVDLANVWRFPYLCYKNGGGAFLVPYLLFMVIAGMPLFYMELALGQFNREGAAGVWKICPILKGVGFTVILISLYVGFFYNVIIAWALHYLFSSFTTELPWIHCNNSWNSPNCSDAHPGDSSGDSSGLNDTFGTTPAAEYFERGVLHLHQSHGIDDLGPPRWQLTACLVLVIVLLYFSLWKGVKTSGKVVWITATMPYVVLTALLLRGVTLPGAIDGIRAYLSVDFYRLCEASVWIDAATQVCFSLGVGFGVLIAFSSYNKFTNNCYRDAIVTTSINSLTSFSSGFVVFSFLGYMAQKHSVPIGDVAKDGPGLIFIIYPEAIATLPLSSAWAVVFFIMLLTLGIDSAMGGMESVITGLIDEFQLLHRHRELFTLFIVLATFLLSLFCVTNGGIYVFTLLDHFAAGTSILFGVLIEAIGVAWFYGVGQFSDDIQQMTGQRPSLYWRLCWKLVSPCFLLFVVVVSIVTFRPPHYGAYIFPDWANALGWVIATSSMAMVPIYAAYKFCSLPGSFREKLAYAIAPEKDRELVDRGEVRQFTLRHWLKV
Description: Competition binding of [3H]CFT in COS-7 cells expressing hDAT. The conditions noted are these: hDAT in COS-7 cells; competitive inhibition of [3H]CFT binding; mean [SEM interval]; read-out: DAT Ki. On the procedure:
as §1, §2
All statistical tests and data analyses were performed in GraphPad Prism 9 (GraphPad Software, Prism 9 version 9.2.0, San Diego, CA, USA). Unless otherwise specified, all data points are given as mean ± SEM (standard error of the mean) or mean [SEM interval]. […] Data plotted as a percentage of the control (absence of the competitive ligand) unless otherwise stated, i.e., normalized to the Bmax determined from the sigmoidal fit. […]

For test [6], the target named is T5, hNET expressed in COS-7 cells (Homo sapiens, UniProt P23975).
T5 construct: expressed in transfected cells; host or cells: COS-7 cells, transient transfection
T5 sequence (P23975 whole entry): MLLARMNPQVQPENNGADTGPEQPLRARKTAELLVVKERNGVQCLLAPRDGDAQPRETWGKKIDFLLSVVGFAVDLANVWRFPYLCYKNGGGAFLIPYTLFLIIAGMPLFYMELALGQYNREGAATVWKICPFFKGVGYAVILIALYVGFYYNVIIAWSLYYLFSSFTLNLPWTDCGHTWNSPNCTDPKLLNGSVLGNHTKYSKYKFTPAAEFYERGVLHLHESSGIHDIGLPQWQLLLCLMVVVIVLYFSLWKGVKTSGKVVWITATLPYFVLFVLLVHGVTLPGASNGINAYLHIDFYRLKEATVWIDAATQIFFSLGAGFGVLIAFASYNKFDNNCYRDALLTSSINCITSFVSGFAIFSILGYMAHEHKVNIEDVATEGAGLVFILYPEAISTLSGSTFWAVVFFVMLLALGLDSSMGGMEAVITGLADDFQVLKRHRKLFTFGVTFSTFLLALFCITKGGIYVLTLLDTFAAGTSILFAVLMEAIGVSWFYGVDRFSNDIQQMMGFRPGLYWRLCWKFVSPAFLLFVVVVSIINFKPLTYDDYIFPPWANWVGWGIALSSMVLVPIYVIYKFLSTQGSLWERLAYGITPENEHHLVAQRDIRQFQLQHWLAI
Description: Competition binding of [3H]nisoxetine in COS-7 cells expressing hNET. As to conditions: hNET in COS-7 cells; competitive inhibition of [3H]nisoxetine binding; mean [SEM interval]; read-out: NET Ki. On the procedure: as §2, §5

In test [7] the target is hDAT. As to conditions: read-out: DAT Ki; footnote a: hDAT in HEK293 cells, [3H]CFT; ref 32 (Tatsumi et al. 1997); cited from earlier work.
Test [8] has as its target hNET. Details: method as in ref 32 (Tatsumi et al. 1997). The conditions noted are these: footnote a: hNET in HEK293 cells, [3H]nisoxetine; ref 32 (Tatsumi et al. 1997); read-out: NET Ki; cited from earlier work.
Test [9] concerns the target T2, purified dDAT (dDAT-His8). The experiment in a line: Homologous competitive [3H]mazindol binding to purified dDAT (SPA). As to the method:
as §4, §6
as §5, with “condition. The data were fitted as a non-linear regression (curve fit) through a sigmoidal dose–response (variable slope) model to determine the Kd. Ion binding study data were plotted using the same four-parameter logistic equation.” for “condition.”

For test [10], the target named is NET. Details: method as in ref 33 (Agoston et al. 1997). As to conditions: footnote c: [3H]unknown ligand for NET; ref 33 (Agoston et al. 1997); cited from earlier work.
Test [11] addresses DAT. Details: method as in ref 34 (Cao et al. 2016). As to conditions: footnote d: rat caudate putamen membranes, [3H]CFT; ref 34 (Cao et al. 2016); cited from earlier work.
Test [12] addresses hDAT. Also on record: method as in ref 35 (Owens et al. 2001). The conditions noted are these: footnote e: hDAT in HEK293 cells, [125I]RTI-55; ref 35 (Owens et al. 2001); read-out: DAT Ki; cited from earlier work.
The target of test [13] is hNET. Details: method as in ref 35 (Owens et al. 2001). The conditions noted are these: footnote e: hNET in HEK293 cells, [3H]nisoxetine; ref 35 (Owens et al. 2001); read-out: NET Ki; cited from earlier work.
The mark [14] stands for this setting: dDAT in COS-7 cells, competitive inhibition of [3H]nisoxetine binding, mean [SEM interval].

The structures appear in SMILES notation. Like-named read-outs stand apart in the source and are kept apart here.

T1 sequence (Q7K4Y6 whole entry): as the sequence (Q7K4Y6 whole entry) above
T3 sequence (Q7K4Y6 whole entry): as above

In the case of `CNCCC(Oc1ccccc1OC)c1ccccc1` (stereo not drawn) [Nisoxetine], the Kd in [1] was determined as 0.07 µM; in test [2], 0.031 µM. Further, the IC50 in test [3] was 0.0056 ± 0.0022 µM.
Turning to `NCCc1ccc(O)c(O)c1` [Dopamine], the IC50 in test [3] is 2.9 ± 0.5 µM.
Take `Fc1ccc([C@@H]2CCNC[C@H]2COc2ccc3c(c2)OCO3)cc1` [Paroxetine]: in test [4] (read-out: dDAT Ki), the Ki is 0.322 µM. In addition, the half-maximal inhibitory concentration (IC50) in test [3] is 0.022 ± 0.004 µM.
For `CC(NC(C)(C)C)C(=O)c1cccc(Cl)c1` (stereo not drawn) [Bupropion], the inhibition constant (Ki) in test [4] (read-out: dDAT Ki) was found to be 7.5 µM. The IC50 in [3] was 48 ± 5 µM.
For the compound `CC(O)CN1CCN(CC[S+]([O-])C(c2ccc(F)cc2)c2ccc(F)cc2)CC1` (stereo not drawn) [JJC8-091], in test [4] (read-out: dDAT Ki), the Ki turned out to be 199 µM.
Consider `C[C@H](N)Cc1ccccc1` [D-amphetamine], for which the inhibitory constant (Ki) in [4] (read-out: dDAT Ki) worked out at 18 µM. Moreover, in test [3], the concentration for half-maximal inhibition (IC50) was 6.6 ± 0.9 µM.
For `COC(=O)[C@H]1C(c2ccc(I)cc2)C[C@@H]2CC[C@H]1N2C` (stereo partly drawn) [RTI-55], the Ki stood at 0.0005 µM in test [5], 0.13 µM in test [4] (read-out: dDAT Ki), 0.299 µM in test [1] (setting [14]) and 0.004 µM in test [6]. For the same compound, in [3], the concentration for half-maximal inhibition (IC50) was 0.066 ± 0.01 µM.
As for `COC(=O)[C@H]1[C@@H](c2ccc(F)cc2)C[C@@H]2CC[C@H]1N2C` [CFT], the Ki in test [4] (read-out: dDAT Ki) was 25 µM; in [1] (setting [14]), 3.9 µM; in test [6], 0.357 µM.
Consider `NCCc1c[nH]c2ccc(O)cc12` [Serotonin], for which the Ki in test [4] (read-out: dDAT Ki) is 173 µM; in test [7] it was > 100 µM; in [8], > 100 µM. The IC50 in test [3] is 43 ± 7 µM.
Take `CN(C)CCCN1c2ccccc2CCc2ccccc21` [Imipramine]: the IC50 in test [3] was 0.03 ± 0.01 µM.
On to `CN(C)CCC=C1c2ccccc2CCc2ccccc21` [Amitriptyline], for which the results for the Ki in test [4] (read-out: dDAT Ki) and in [7] were 0.097 µM and 3.25 ± 0.02 µM, respectively. Also, the IC50 in [3] is 0.03 ± 0.001 µM.
Regarding `CN[C@@H](C)Cc1ccccc1` [Methamphetamine], the Ki in test [4] (read-out: dDAT Ki) was 13 µM; in test [7], 2.8 ± 0.1 µM; in test [8], 0.66 ± 0.02 µM.
As to `OC1(c2ccc(Cl)cc2)c2ccccc2C2=NCCN21` (stereo not drawn) [Mazindol], the Ki in [4] (Ki, first (higher affinity) binding population of biphasic curve, [3H]nisoxetine displacement, T = 2 h at RT, two-site fit, representative dataset, estimated) was 0.0002 µM; in test [4] (read-out: Ki, second (lower affinity) binding population of biphasic curve, [3H]nisoxetine displacement, T = 2 h at RT, two-site fit, representative dataset, estimated), 0.402 µM; in test [4] (read-out: dDAT Ki), 2.8 µM; in [8] it was 0.00045 ± 3e-05 µM. Moreover, the half-inhibitory concentration (IC50) is 0.025 µM in [9]; 79 µM in [9] (read-out: IC50, second (lower affinity) binding population of biphasic curve, homologous [3H]mazindol competition, biphasic dataset T = 16 h, two-site fit, estimated); 0.0044 ± 0.0022 µM in [3]. The compound also displayed a dissociation constant (Kd) in test [9] of 13 µM.
For `NC(=O)C[S+]([O-])C(c1ccccc1)c1ccccc1` (stereo not drawn) [Modafinil], the inhibition constant (Ki) in test [4] (read-out: dDAT Ki) stood at 554 µM.
In the case of `COC(=O)[C@H]1[C@@H](OC(=O)c2ccccc2)C[C@@H]2CC[C@H]1N2C` [Cocaine], the inhibition constant (Ki) in [4] (read-out: dDAT Ki) is 20 µM; in test [8] it was 1.42 ± 0.05 µM. Further, the concentration for half-maximal inhibition (IC50) in test [3] is 2.66 ± 0.23 µM.
As for `NC[C@H](O)c1ccc(O)c(O)c1` [Norepinephrine], the Ki turned out to be 184 µM in [4] (read-out: dDAT Ki) and 68 µM in test [1]. For the same compound, the half-maximal inhibitory concentration (IC50) in [3] is 49 ± 9 µM.
`CCCCN1[C@@H]2CC[C@H]1CC(OC(c1ccc(F)cc1)c1ccc(F)cc1)C2` (stereo partly drawn) [JHW007]: the inhibition constant (Ki) in test [4] (read-out: dDAT Ki) is 3.1 µM; in test [10] it was 1.33 µM.
For `CNCCC=C1c2ccccc2CCc2ccccc21` [Nortriptyline], the inhibitory constant (Ki) in test [7] is 1.14 ± 0.03 µM.
Regarding `[O-][S+](CCN1CCN(CC(O)Cc2ccccc2)CC1)C(c1ccc(F)cc1)c1ccc(F)cc1` (stereo not drawn) [JJC8-088], the Ki in [4] (read-out: dDAT Ki) was 33 µM; in test [11] it was 0.00253 ± 0.00025 µM.
As for `CN(C)CCC[C@@]1(c2ccc(F)cc2)OCc2cc(C#N)ccc21` [S-citalopram], the inhibitory constant (Ki) in test [4] (read-out: dDAT Ki) was 24 µM; in [12], 27.4 ± 3.11 µM; in test [13] it was 7.84 ± 0.998 µM. In addition, the 50% inhibitory concentration (IC50) in test [3] is 8.1 ± 2.1 µM.

(Values after paper PMC9740255 (Cells, 2022).)
